# Measurements from publication PMC7311426, “An amphipathic peptide with antibiotic activity against multidrug-resistant Gram-negative bacteria” (Nature Communications, 2020).
# Residues, ends and D or L forms follow the SMILES beside them.
# Columns and labels:
# Assay in all cases: microbe, parasite or virus in culture
# P. aeruginosa = system: P. aeruginosa
# In short: (§1)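 Broth microdilution in MHB, 2-fold 12-point series from 128 or 64 down to 0.06 or 0.03 μg mL^−1, 5 × 10^5 CFU mL^−1. Extra runs in CAMHB per CLSI and in MHB with 1% agarose; n ≥ 6.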
# S. aureus = settings: BMD; range over strains and media
# In short: as §1
# S. enterica Typhi = settings: Typhi
# In short: as §1
# [1] = system: A. baumannii clinical isolates; settings: clinical isolates
# In short: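 MIC90 from CLSI broth microdilution (M07-A9) in two clinical-isolate panels. US panel (331 isolates, 2010-2012): AA139 diluted in 0.01% acetic acid/0.1% BSA. Worldwide panel (445 isolates, 2011-2013, four regions): CAMHB, with 0.002% Tween 80 added for AA139 and polymyxin B.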
smiles,measurement,setting,value
"CC(C)[C@@H]1NC(=O)[C@H](Cc2ccc(O)cc2)NC(=O)[C@H](Cc2c[nH]c3ccccc23)NC(=O)[C@@H](NC(=O)[C@H](Cc2ccccc2)NC(=O)CN)CSSC[C@@H](C(=O)N[C@@H](CC(N)=O)C(=O)O)NC(=O)[C@H](CCCNC(=N)N)NC(=O)[C@H](CCCNC(=N)N)NC(=O)[C@H](Cc2ccc(O)cc2)NC(=O)[C@@H]2CSSC[C@H](NC1=O)C(=O)N[C@@H](C)C(=O)N[C@@H](CCCNC(=N)N)C(=O)N[C@@H](CCCNC(=N)N)C(=O)N[C@@H](CC(N)=O)C(=O)NCC(=O)N[C@@H](C)C(=O)N[C@@H](CCCNC(=N)N)C(=O)N[C@@H](C(C)C)C(=O)N2 [AA139] (HELM PEPTIDE1{G.F.C.W.Y.V.C.A.R.R.N.G.A.R.V.C.Y.R.R.C.N}$PEPTIDE1,PEPTIDE1,3:R3-20:R3|PEPTIDE1,PEPTIDE1,7:R3-16:R3$$$V2.0)","MIC, broth microdilution","P. aeruginosa; P. aeruginosa ATCC 27853 spontaneous mutant, AA139 selection 8X, plate 1, colony 1, drug-free passage 1","1, 1 µg/mL"
same,"MIC, broth microdilution","P. aeruginosa; P. aeruginosa ATCC 27853 spontaneous mutant, AA139 selection 8X, plate 1, colony 1, drug-free passage 5","1, 1 µg/mL"
same,"MIC, broth microdilution","P. aeruginosa; P. aeruginosa ATCC 27853 spontaneous mutant, AA139 selection 8X, plate 1, colony 2, drug-free passage 1",1 µg/mL
same,"MIC, broth microdilution","P. aeruginosa; P. aeruginosa ATCC 27853 spontaneous mutant, AA139 selection 8X, plate 1, colony 2, drug-free passage 5",2 µg/mL
same,"MIC, broth microdilution","P. aeruginosa; P. aeruginosa ATCC 27853 spontaneous mutant, AA139 selection 8X, plate 1, colony 3, drug-free passage 1","1, 1 µg/mL"
same,"MIC, broth microdilution","P. aeruginosa; P. aeruginosa ATCC 27853 spontaneous mutant, AA139 selection 8X, plate 1, colony 3, drug-free passage 5","1, 1 µg/mL"
same,"MIC, broth microdilution","P. aeruginosa; P. aeruginosa ATCC 27853 spontaneous mutant, AA139 selection 8X, plate 1, colony 4, drug-free passage 1","1, 1 µg/mL"
same,"MIC, broth microdilution","P. aeruginosa; P. aeruginosa ATCC 27853 spontaneous mutant, AA139 selection 8X, plate 1, colony 4, drug-free passage 5","1, 1 µg/mL"
same,"MIC, broth microdilution","P. aeruginosa; P. aeruginosa ATCC 27853 spontaneous mutant, AA139 selection 8X, plate 1, colony 5, drug-free passage 1","1, 1 µg/mL"
same,"MIC, broth microdilution","P. aeruginosa; P. aeruginosa ATCC 27853 spontaneous mutant, AA139 selection 8X, plate 1, colony 5, drug-free passage 5","1, 1 µg/mL"
same,BMD MIC,"P. aeruginosa; P. aeruginosa FADDI-070, MDR, PmxR, MHB/CAMHB, mode of 6 replicates",2 µg/mL
same,"MIC, broth microdilution","P. aeruginosa; P. aeruginosa UNT 138-1 spontaneous mutant, AA139 selection 4X, plate 1, colony 1, drug-free passage 1","2, 2 µg/mL"
same,"MIC, broth microdilution","P. aeruginosa; P. aeruginosa UNT 138-1 spontaneous mutant, AA139 selection 4X, plate 1, colony 1, drug-free passage 5","2, 2 µg/mL"
same,"MIC, broth microdilution","P. aeruginosa; P. aeruginosa UNT 138-1 spontaneous mutant, AA139 selection 4X, plate 1, colony 2, drug-free passage 1","1, 1 µg/mL"
same,"MIC, broth microdilution","P. aeruginosa; P. aeruginosa UNT 138-1 spontaneous mutant, AA139 selection 4X, plate 1, colony 2, drug-free passage 5","1, 1 µg/mL"
same,"MIC, broth microdilution","P. aeruginosa; P. aeruginosa UNT 138-1 spontaneous mutant, AA139 selection 4X, plate 1, colony 3, drug-free passage 1","1, 1 µg/mL"
same,"MIC, broth microdilution","P. aeruginosa; P. aeruginosa UNT 138-1 spontaneous mutant, AA139 selection 4X, plate 1, colony 3, drug-free passage 5","1, 1 µg/mL"
same,"MIC, broth microdilution","P. aeruginosa; P. aeruginosa UNT 138-1 spontaneous mutant, AA139 selection 4X, plate 1, colony 4, drug-free passage 1","1, 1 µg/mL"
same,"MIC, broth microdilution","P. aeruginosa; P. aeruginosa UNT 138-1 spontaneous mutant, AA139 selection 4X, plate 1, colony 4, drug-free passage 5","1, 1 µg/mL"
same,"MIC, broth microdilution","P. aeruginosa; P. aeruginosa UNT 138-1 spontaneous mutant, AA139 selection 4X, plate 1, colony 5, drug-free passage 1",2 µg/mL
same,"MIC, broth microdilution","P. aeruginosa; P. aeruginosa UNT 138-1 spontaneous mutant, AA139 selection 4X, plate 1, colony 5, drug-free passage 5",1 µg/mL
same,"MIC, broth microdilution","P. aeruginosa; P. aeruginosa UNT 138-1 spontaneous mutant, AA139 selection 4X, plate 1, colony 6, drug-free passage 1",2 µg/mL
same,"MIC, broth microdilution","P. aeruginosa; P. aeruginosa UNT 138-1 spontaneous mutant, AA139 selection 4X, plate 1, colony 6, drug-free passage 5",1 µg/mL
same,"MIC, broth microdilution","P. aeruginosa; P. aeruginosa UNT 138-1 spontaneous mutant, AA139 selection 4X, plate 1, colony 7, drug-free passage 1",2 µg/mL
same,"MIC, broth microdilution","P. aeruginosa; P. aeruginosa UNT 138-1 spontaneous mutant, AA139 selection 4X, plate 1, colony 7, drug-free passage 5",1 µg/mL
same,"MIC, broth microdilution","P. aeruginosa; P. aeruginosa UNT 138-1 spontaneous mutant, AA139 selection 4X, plate 2, colony 1, drug-free passage 1","2, 2 µg/mL"
same,"MIC, broth microdilution","P. aeruginosa; P. aeruginosa UNT 138-1 spontaneous mutant, AA139 selection 4X, plate 2, colony 1, drug-free passage 5","2, 2 µg/mL"
same,"MIC, broth microdilution","P. aeruginosa; P. aeruginosa UNT 138-1 spontaneous mutant, AA139 selection 4X, plate 2, colony 2, drug-free passage 1",2 µg/mL
same,"MIC, broth microdilution","P. aeruginosa; P. aeruginosa UNT 138-1 spontaneous mutant, AA139 selection 4X, plate 2, colony 2, drug-free passage 5",1 µg/mL
same,"MIC, broth microdilution","P. aeruginosa; P. aeruginosa UNT 138-1 spontaneous mutant, AA139 selection 4X, plate 2, colony 3, drug-free passage 1","2, 2 µg/mL"
same,"MIC, broth microdilution","P. aeruginosa; P. aeruginosa UNT 138-1 spontaneous mutant, AA139 selection 4X, plate 2, colony 3, drug-free passage 5","2, 2 µg/mL"
same,"MIC, broth microdilution","P. aeruginosa; P. aeruginosa UNT 138-1 spontaneous mutant, AA139 selection 4X, plate 2, colony 4, drug-free passage 1",2 µg/mL
same,"MIC, broth microdilution","P. aeruginosa; P. aeruginosa UNT 138-1 spontaneous mutant, AA139 selection 4X, plate 2, colony 4, drug-free passage 5",1 µg/mL
same,"MIC, broth microdilution","P. aeruginosa; P. aeruginosa UNT 138-1 spontaneous mutant, AA139 selection 4X, plate 2, colony 5, drug-free passage 1",2 µg/mL
same,"MIC, broth microdilution","P. aeruginosa; P. aeruginosa UNT 138-1 spontaneous mutant, AA139 selection 4X, plate 2, colony 5, drug-free passage 5",1 µg/mL
same,"MIC, broth microdilution","P. aeruginosa; P. aeruginosa UNT 138-1 spontaneous mutant, AA139 selection 4X, plate 2, colony 6, drug-free passage 1",2 µg/mL
same,"MIC, broth microdilution","P. aeruginosa; P. aeruginosa UNT 138-1 spontaneous mutant, AA139 selection 4X, plate 2, colony 6, drug-free passage 5",1 µg/mL
same,"MIC, broth microdilution","P. aeruginosa; P. aeruginosa UNT 138-1 spontaneous mutant, AA139 selection 4X, plate 2, colony 7, drug-free passage 1",2 µg/mL
same,"MIC, broth microdilution","P. aeruginosa; P. aeruginosa UNT 138-1 spontaneous mutant, AA139 selection 4X, plate 2, colony 7, drug-free passage 5",1 µg/mL
same,"MIC, broth microdilution","P. aeruginosa; P. aeruginosa UNT 138-1 spontaneous mutant, AA139 selection 8X, plate 1, colony 1, drug-free passage 1",2 µg/mL
same,"MIC, broth microdilution","P. aeruginosa; P. aeruginosa UNT 138-1 spontaneous mutant, AA139 selection 8X, plate 1, colony 1, drug-free passage 5",1 µg/mL
same,"MIC, broth microdilution","P. aeruginosa; P. aeruginosa UNT 138-1 spontaneous mutant, AA139 selection 8X, plate 1, colony 2, drug-free passage 1","1, 1 µg/mL"
same,"MIC, broth microdilution","P. aeruginosa; P. aeruginosa UNT 138-1 spontaneous mutant, AA139 selection 8X, plate 1, colony 2, drug-free passage 5","1, 1 µg/mL"
same,"MIC, broth microdilution","P. aeruginosa; P. aeruginosa UNT 138-1 spontaneous mutant, AA139 selection 8X, plate 1, colony 3, drug-free passage 1","1, 1 µg/mL"
same,"MIC, broth microdilution","P. aeruginosa; P. aeruginosa UNT 138-1 spontaneous mutant, AA139 selection 8X, plate 1, colony 3, drug-free passage 5","1, 1 µg/mL"
same,"MIC, broth microdilution","P. aeruginosa; P. aeruginosa UNT 138-1 spontaneous mutant, AA139 selection 8X, plate 1, colony 4, drug-free passage 1","2, 2 µg/mL"
same,"MIC, broth microdilution","P. aeruginosa; P. aeruginosa UNT 138-1 spontaneous mutant, AA139 selection 8X, plate 1, colony 4, drug-free passage 5","2, 2 µg/mL"
same,"MIC, broth microdilution","P. aeruginosa; P. aeruginosa UNT 138-1 spontaneous mutant, AA139 selection 8X, plate 1, colony 5, drug-free passage 1",1 µg/mL
same,"MIC, broth microdilution","P. aeruginosa; P. aeruginosa UNT 138-1 spontaneous mutant, AA139 selection 8X, plate 1, colony 5, drug-free passage 5",2 µg/mL
same,"MIC, broth microdilution","P. aeruginosa; P. aeruginosa UNT 138-1 spontaneous mutant, AA139 selection 8X, plate 2, colony 1, drug-free passage 1","1, 1 µg/mL"
same,"MIC, broth microdilution","P. aeruginosa; P. aeruginosa UNT 138-1 spontaneous mutant, AA139 selection 8X, plate 2, colony 1, drug-free passage 5","1, 1 µg/mL"
same,MIC against Staphylococcus aureus,S. aureus,32 to 64 µg/mL
same,BMD MIC,S. enterica Typhi,0.5 µg/mL
same,MIC90 (A. baumannii),[1],2.0 µg/mL
same,MIC against colistin-resistant isolates (did not surpass),[1],≤ 2 µg/mL
